# Assays:
# Staphylococcus aureus [1] = experiment: Antibacterial activity against methicillin-resistant Staphylococcus aureus USA300 NRS384 assessed as inhibition of bacterial growth measured after 18 to 20 hrs by broth microdilution method; format: functional; conditions: time 18-20 hrs
# Escherichia coli [2] = experiment: Antibacterial activity against Escherichia coli JW55031 harboring toIC efflux mutant assessed as inhibition of bacterial growth measured after 18 to 20 hrs by broth microdilution method; format: functional; conditions: time 18-20 hrs
# Escherichia coli [3] = experiment: Antibacterial activity against wild type Escherichia coli BW25113 assessed as inhibition of bacterial growth measured after 18 to 20 hrs by broth microdilution method; format: functional; conditions: time 18-20 hrs
# Staphylococcus aureus [4] = experiment: Antibacterial activity against vancomycin-resistant Staphylococcus aureus 10 assessed as inhibition of bacterial growth measured after 18 to 20 hrs by CLSI protocol based broth microdilution method; format: functional; conditions: time 18-20 hrs
# Staphylococcus aureus [5] = experiment: Antibacterial activity against vancomycin-resistant Staphylococcus aureus 12 assessed as inhibition of bacterial growth measured after 18 to 20 hrs by CLSI protocol based broth microdilution method; format: functional; conditions: time 18-20 hrs
# [6] = tested on: Staphylococcus epidermidis; experiment: Antibacterial activity against methicillin-resistant Staphylococcus epidermidis NRS101 assessed as inhibition of bacterial growth measured after 18 to 20 hrs by CLSI protocol based broth microdilution method; format: functional; conditions: time 18-20 hrs
# Enterococcus faecium = experiment: Antibacterial activity against vancomycin-resistant Enterococcus faecium ATCC 700221 assessed as inhibition of bacterial growth measured after 18 to 20 hrs by CLSI protocol based broth microdilution method; format: functional; conditions: time 18-20 hrs
# Listeria monocytogenes = experiment: Antibacterial activity against Listeria monocytogenes ATCC 19111 assessed as inhibition of bacterial growth measured after 18 to 20 hrs by CLSI protocol based broth microdilution method; format: functional; conditions: time 18-20 hrs
# Streptococcus pneumoniae [7] = experiment: Antibacterial activity against cephalosporin-resistant Streptococcus pneumoniae ATCC 51916 assessed as inhibition of bacterial growth measured after 18 to 20 hrs by CLSI protocol based broth microdilution method; format: functional; conditions: time 18-20 hrs
# Streptococcus pneumoniae [8] = experiment: Antibacterial activity against methicillin-resistant Streptococcus pneumoniae ATCC 700677 assessed as inhibition of bacterial growth measured after 18 to 20 hrs by CLSI protocol based broth microdilution method; format: functional; conditions: time 18-20 hrs
# Staphylococcus aureus [9] = experiment: Bactericidal activity against methicillin-resistant Staphylococcus aureus USA400 NRS123 assessed as post-antibiotic effect at 5 times MIC incubated for 2 hrs followed by compound wash-out by viable plate count method; format: functional
# Staphylococcus aureus [10] = experiment: microbe, parasite or virus in culture; conditions: ATCC 6538
# Staphylococcus aureus [11] = experiment: microbe, parasite or virus in culture; conditions: NRS107
# Staphylococcus aureus [12] = experiment: microbe, parasite or virus in culture; conditions: NRS119
# Staphylococcus aureus [13] = experiment: microbe, parasite or virus in culture; conditions: USA400 NRS123
# Staphylococcus aureus [14] = experiment: microbe, parasite or virus in culture; conditions: USA500 NRS385
# Staphylococcus aureus [15] = experiment: microbe, parasite or virus in culture; conditions: USA700 NRS386
# Enterococcus faecalis = experiment: microbe, parasite or virus in culture; conditions: ATCC 51299
# Staphylococcus aureus [16] = experiment: Ratio of MIC for methicillin-resistant Staphylococcus aureus USA400 NRS123 measured after 14th passage to MIC for methicillin-resistant Staphylococcus aureus USA400 NRS123 measured after 18 to 20 hrs by broth microdilution assay; format: functional
# physchem = conditions: phosphate-buffered saline, pH 7.4
smiles,measurement,setting,value
COc1ccc(-c2csc(Nc3ccc(/C(C)=N/NC(=N)N)cc3)n2)cc1,MIC,Staphylococcus aureus [1],32 µg/mL
same,MIC,Escherichia coli [2],2 µg/mL
same,MIC,Escherichia coli [3],4 µg/mL
C/C(=N\NC(N)=S)c1ccc(Nc2nc(-c3ccc(Cl)cc3)cs2)cc1,MIC,Staphylococcus aureus [1],32 µg/mL
same,MIC,Escherichia coli [2],64 µg/mL
same,MIC,Escherichia coli [3],> 64 µg/mL
C/C(=N\NC(N)=O)c1ccc(Nc2nc(-c3ccc(C)cc3)cs2)cc1,MIC,Staphylococcus aureus [1],32 µg/mL
same,MIC,Escherichia coli [2],32 µg/mL
same,MIC,Escherichia coli [3],> 64 µg/mL
COc1ccc(-c2csc(Nc3ccc(C(C)=O)cc3)n2)cc1,MIC,Staphylococcus aureus [1],> 64 µg/mL
same,MIC,Escherichia coli [2],> 64 µg/mL
same,MIC,Escherichia coli [3],> 64 µg/mL
CN[C@H](CC(C)C)C(=O)N[C@H]1C(=O)N[C@@H](CC(N)=O)C(=O)N[C@H]2C(=O)N[C@H]3C(=O)N[C@H](C(=O)N[C@H](C(=O)O)c4cc(O)cc(O)c4-c4cc3ccc4O)[C@H](O)c3ccc(c(Cl)c3)Oc3cc2cc(c3O[C@@H]2O[C@H](CO)[C@@H](O)[C@H](O)[C@H]2O[C@H]2C[C@](C)(N)[C@H](O)[C@H](C)O2)Oc2ccc(cc2Cl)[C@H]1O [VANCOMYCIN],MBC,Staphylococcus aureus [4],> 64 µg/mL
same,MIC,Staphylococcus aureus [4],64 µg/mL
same,MBC,Staphylococcus aureus [5],64 µg/mL
same,MIC,Staphylococcus aureus [5],64 µg/mL
same,MBC,[6],2 µg/mL
same,MBC,Enterococcus faecium,> 64 µg/mL
same,MIC,Enterococcus faecium,> 64 µg/mL
same,MIC,Listeria monocytogenes,1 µg/mL
same,MIC,Streptococcus pneumoniae [7],1 µg/mL
same,MIC,Streptococcus pneumoniae [8],2 µg/mL
same,PAE,Staphylococcus aureus [9],2 h
same,MBC,Staphylococcus aureus [10],2 µg/mL
same,MBC,Staphylococcus aureus [11],2 µg/mL
same,MBC,Staphylococcus aureus [12],2 µg/mL
same,MBC,Staphylococcus aureus [13],1 µg/mL
same,MBC,Staphylococcus aureus [14],1 µg/mL
same,MBC,Staphylococcus aureus [15],1 µg/mL
same,MBC,Enterococcus faecalis,64 µg/mL
same,MIC,Enterococcus faecalis,32 µg/mL
C/C(=N\NC(=N)N)c1ccc(Nc2nc(-c3ccc(Br)cc3)cs2)cc1,MIC,Staphylococcus aureus [1],16 µg/mL
same,MIC,Escherichia coli [2],2 µg/mL
same,MIC,Escherichia coli [3],4 µg/mL
C/C(=N\NC(N)=O)c1ccc(Nc2nc(-c3ccc(Br)cc3)cs2)cc1,MIC,Staphylococcus aureus [1],> 64 µg/mL
same,MIC,Escherichia coli [2],> 64 µg/mL
same,MIC,Escherichia coli [3],> 64 µg/mL
CC(=O)c1ccc(Nc2nc(-c3ccc(Cl)cc3)cs2)cc1,MIC,Staphylococcus aureus [1],> 64 µg/mL
same,MIC,Escherichia coli [2],> 64 µg/mL
same,MIC,Escherichia coli [3],> 64 µg/mL
CN[C@@H]1[C@@H](O)[C@@H](O[C@@H]2[C@@H](O)[C@H](O[C@H]3O[C@H]([C@@H](C)N)CC[C@H]3N)[C@@H](N)C[C@H]2N)OC[C@]1(C)O [GENTAMICIN C2],MIC,Escherichia coli [2],0.25 µg/mL
same,MIC,Escherichia coli [3],0.25 µg/mL
C/C(=N\NC(N)=S)c1ccc(Nc2nc(-c3ccc(C)cc3)cs2)cc1,MIC,Staphylococcus aureus [1],> 64 µg/mL
same,MIC,Escherichia coli [2],> 64 µg/mL
same,MIC,Escherichia coli [3],> 64 µg/mL
COc1ccc(-c2csc(Nc3ccc(/C(C)=N/NC(N)=O)cc3)n2)cc1,MIC,Staphylococcus aureus [1],> 64 µg/mL
same,MIC,Escherichia coli [2],> 64 µg/mL
same,MIC,Escherichia coli [3],> 64 µg/mL
CC(=O)c1ccc(Nc2nc(-c3ccc(C)cc3)cs2)cc1,MIC,Staphylococcus aureus [1],> 64 µg/mL
same,MIC,Escherichia coli [2],64 µg/mL
same,MIC,Escherichia coli [3],> 64 µg/mL
C/C(=N\NC(N)=O)c1ccc(Nc2nc(-c3ccc(Cl)cc3)cs2)cc1,MIC,Staphylococcus aureus [1],> 64 µg/mL
same,MIC,Escherichia coli [2],> 64 µg/mL
same,MIC,Escherichia coli [3],> 64 µg/mL
C/C(=N\NC(N)=S)c1ccc(Nc2nc(-c3ccc(Br)cc3)cs2)cc1,MIC,Staphylococcus aureus [1],> 64 µg/mL
same,MIC,Escherichia coli [2],> 64 µg/mL
same,MIC,Escherichia coli [3],> 64 µg/mL
C/C(=N\NC(N)=O)c1ccc(Nc2nc(-c3ccccc3)cs2)cc1,MIC,Staphylococcus aureus [1],> 64 µg/mL
same,MIC,Escherichia coli [2],> 64 µg/mL
same,MIC,Escherichia coli [3],> 64 µg/mL
C/C(=N\NC(N)=S)c1ccc(Nc2nc(-c3ccccc3)cs2)cc1,MIC,Staphylococcus aureus [1],> 64 µg/mL
same,MIC,Escherichia coli [2],> 64 µg/mL
same,MIC,Escherichia coli [3],> 64 µg/mL
COc1ccc(-c2csc(Nc3ccc(/C(C)=N/NC(N)=S)cc3)n2)cc1,MIC,Staphylococcus aureus [1],> 64 µg/mL
same,MIC,Escherichia coli [2],> 64 µg/mL
same,MIC,Escherichia coli [3],> 64 µg/mL
O=C(O)c1cn(C2CC2)c2cc(N3CCNCC3)c(F)cc2c1=O [CIPROFLOXACIN],Ratio,Staphylococcus aureus [16],127
CC(=O)NC[C@H]1CN(c2ccc(N3CCOCC3)c(F)c2)C(=O)O1 [LINEZOLID],MBC,Staphylococcus aureus [4],> 64 µg/mL
same,MIC,Staphylococcus aureus [4],1 µg/mL
same,MBC,Staphylococcus aureus [5],64 µg/mL
same,MIC,Staphylococcus aureus [5],1 µg/mL
same,MBC,[6],16 µg/mL
same,MIC,[6],1 µg/mL
same,MBC,Enterococcus faecium,16 µg/mL
same,MIC,Enterococcus faecium,1 µg/mL
same,MBC,Listeria monocytogenes,16 µg/mL
same,MIC,Listeria monocytogenes,≤ 0.5 µg/mL
same,MBC,Streptococcus pneumoniae [7],32 µg/mL
same,MBC,Streptococcus pneumoniae [8],16 µg/mL
same,MBC,Staphylococcus aureus [10],16 µg/mL
same,MIC,Staphylococcus aureus [10],1 µg/mL
same,MBC,Staphylococcus aureus [11],64 µg/mL
same,MIC,Staphylococcus aureus [11],1 µg/mL
same,MBC,Staphylococcus aureus [12],> 64 µg/mL
same,MIC,Staphylococcus aureus [12],64 µg/mL
same,MBC,Staphylococcus aureus [13],32 µg/mL
same,MIC,Staphylococcus aureus [13],1 µg/mL
same,MBC,Staphylococcus aureus [14],32 µg/mL
same,MIC,Staphylococcus aureus [14],1 µg/mL
same,MBC,Staphylococcus aureus [15],64 µg/mL
same,MBC,Enterococcus faecalis,16 µg/mL
CO[C@H]1/C=C/O[C@@]2(C)Oc3c(C)c(O)c4c(O)c(c(/C=N/N5CCN(C)CC5)c(O)c4c3C2=O)NC(=O)/C(C)=C\C=C\[C@H](C)[C@H](O)[C@@H](C)[C@@H](O)[C@@H](C)[C@H](OC(C)=O)[C@@H]1C [RIFAMPIN],solubility kinetic at 2 h,physchem,183 µM
CC(=O)c1ccc(Nc2nc(-c3ccccc3)cs2)cc1,MIC,Staphylococcus aureus [1],> 64 µg/mL
same,MIC,Escherichia coli [2],> 64 µg/mL
same,MIC,Escherichia coli [3],> 64 µg/mL
CC(=O)c1ccc(Nc2nc(-c3ccc(Br)cc3)cs2)cc1,MIC,Staphylococcus aureus [1],> 64 µg/mL
same,MIC,Escherichia coli [2],> 64 µg/mL
same,MIC,Escherichia coli [3],> 64 µg/mL
